Measurements as given in patent US5663149A, “Human cancer inhibitory pentapeptide heterocyclic and halophenyl amides” (priority 1994, dated 1997).

How the values were obtained:
[1] = system: P388 Lymphocytic Leukemia; test: Murine in vivo system, P388 Lymphocytic Leukemia; conditions: P388, dose 13.0 μg/kg
Excerpt: (§1) Experimental Anti-cancer Activity of Dolastatin 10 in Murine in vivo Systems, T/C (μg/kg)

[2] = system: LOX Human Melanoma Xenograft; test: LOX Human Melanoma Xenograft in nude mouse; type: in vivo; conditions: dose 52 μg/kg
Excerpt: as §1

Human Mammary Xenograft = Human Mammary Xenograft in nude mouse; type: in vivo; conditions: dose 26 μg/kg
Excerpt: as §1

M5076 Ovary Sarcoma = test: Murine in vivo system, M5076 Ovary Sarcoma; conditions: M5076, dose 26 μg/kg
Excerpt: as §1

KM20L2 (Colon) = test: NCI human tumor cell line growth inhibition, KM20L2; type: cell-based; conditions: Colon KM20L2, 48 hours
Experimental: (§2) The only difference is historical usage.
(§3) Percent Growths are calculated for each dose.
(§4) This is the "baseline count", or "Tzero reading".

SK-MEL-5 (Melanoma) = test: NCI human tumor cell line growth inhibition, SK-MEL-5; type: cell-based; conditions: for GI-50 / LC-50 / TGI: Melanoma SK-MEL-5, 48 hours
Experimental: as §2, §3, §4

NCI-H460 (Lung-NSC) = test: NCI human tumor cell line growth inhibition, NCI-H460; type: cell-based; conditions: Lung-NSC NCI-H460, 48 hours
Experimental: as §2, §3, §4

A498 (Renal) = conditions: Renal A498, 48 hours;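 note: NCI protocol, compound given at five doses from 0.01 to 100 µg/ml, percent growth versus untreated controls relative to cell count at time zero, regression on log dose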
Excerpt: The following measures are used to express drug activity by giving the drug dose which reduces cell growth to a specified percentage of growth:
There is no mathematical difference between ED50 and GI50, which are both calculated using the same formula. The only difference is historical usage.
TGI, (Total Growth Inhibition), is the drug dose needed to yield zero percent growth, i.e., just as many cells at the end of the experiment as were present in the beginning. Whether just as many cells were killed as were produced (steady state), or no growth occurred (total inhibition), cannot be distinguished.
Each drug is tested at five (5) doses: 100-10-1-0.1-0.01 μg/ml. Percent Growths are calculated for each dose. […] The log of the dose is used during the regression computation.
At the start of an experiment, cells from the in vitro cell cultures are inoculated into the appropriate tubes or microtiter plates. One set of control tubes/plates is immediately counted to determine the number of cells at the start of the experiment. This is the "baseline count", or "Tzero reading". At the end of the experiment (48 hours later) a second set of control tubes/plates is analyzed to determine the "Control Growth" value. The growth (or death) of cells relative to the initial quantity of cells is used to define the "Percent of Growth".

OVCAR-3 (Ovarian) = test: NCI human tumor cell line growth inhibition, OVCAR-3; type: cell-based; conditions: Ovarian OVCAR-3, 48 hours
Experimental: as §2, §3, §4

PS-388 (Mouse Leukemia) = test: P-388 mouse leukemia cell growth inhibition; type: cell-based; conditions: Mouse Leukemia PS-388
Experimental: as §2, §3, §4

SF-295 (CNS) = test: NCI human tumor cell line growth inhibition, SF-295; type: cell-based; conditions: CNS SF-295, 48 hours
Experimental: as §2, §3, §4

Compound | GI-50 (KM20L2 (Colon)) [µg/mL] | LC-50 (KM20L2 (Colon)) [µg/mL] | TGI (KM20L2 (Colon)) [ng/mL] | GI-50 (SK-MEL-5 (Melanoma)) [µg/mL] | LC-50 (SK-MEL-5 (Melanoma)) [µg/mL] | TGI (SK-MEL-5 (Melanoma)) [ng/mL] | GI-50 (NCI-H460 (Lung-NSC)) [µg/mL] | LC-50 (NCI-H460 (Lung-NSC)) [µg/mL] | TGI (NCI-H460 (Lung-NSC)) [ng/mL] | GI-50 (A498 (Renal)) [µg/mL] | LC-50 (A498 (Renal)) [µg/mL] | TGI (A498 (Renal)) [ng/mL] | GI-50 (OVCAR-3 (Ovarian)) [µg/mL] | LC-50 (OVCAR-3 (Ovarian)) [µg/mL] | TGI (OVCAR-3 (Ovarian)) [ng/mL] | ED-50 (PS-388 (Mouse Leukemia)) [µg/mL] | GI-50 (SF-295 (CNS)) [µg/mL] | LC-50 (SF-295 (CNS)) [µg/mL] | TGI (SF-295 (CNS)) [ng/mL] | further results
CC[C@H](C)[C@@H]([C@@H](CC(=O)N1CCC[C@H]1[C@H](OC)[C@@H](C)C(=O)N[C@@H](Cc1ccccc1)c1nccs1)OC)N(C)C(=O)[C@@H](NC(=O)[C@H](C(C)C)N(C)C)C(C)C [Dolastatin 10] | – | – | – | – | – | – | – | – | – | – | – | – | – | – | – | – | – | – | – | T/C outcome: toxic [1]: toxic; T/C outcome: toxic [2]: toxic; T/C outcome: toxic (Human Mammary Xenograft): Toxic; T/C outcome: toxic (M5076 Ovary Sarcoma): toxic
L-Dolavalyl-L-Valyl-N-Methyl-(S,S,R)-Dolaisoleuinyl-(S,R,R)-Dolaproinyl-L- Phenylalanine N-2,5-Dichlorophenyl Amide [9h] | 0.0000042 | > 0.0001 | 0.037 | 0.0000031 | > 0.0001 | > 0.1 | 0.0000029 | > 0.0001 | 0.012 | 0.000016 | > 0.0001 | > 0.1 | 0.0000031 | > 0.0001 | 0.017 | 0.0000482 | 0.0000036 | > 0.0001 | > 0.1 | –
L-Dolavalyl-L-Valyl-N-Methyl-(S,S,R)-Dolaisoleuinyl-(S,R,R)-Dolaproinyl-L- Phenylalanine N-2-(6-Chloro)benzothiazole Amide [9k] | 0.000022 | – | 0.072 | 0.000003 | – | > 0.1 | 0.0000044 | – | 0.063 | 0.000031 | – | > 0.1 | 0.0000043 | – | 0.027 | 0.000383 | 0.000022 | – | > 0.1 | –
L-Dolavalyl-L-Valyl-N-Methyl-(S,S,R)-Dolaisoleuinyl-(S,R,R)-Dolaproinyl-L- Phenylalanine N-2-(6-Fluoro)benzothiazole Amide [9j] | 0.0000033 | – | 0.013 | 0.0000013 | – | > 0.1 | 0.0000041 | – | 0.036 | 0.000016 | – | > 0.1 | 0.0000031 | – | 0.012 | 0.000227 | 0.0000044 | – | > 0.1 | –
L-Dolavalyl-L-Valyl-N-Methyl-(S,S,R)-Dolaisoleuinyl-(S,R,R)-Dolaproinyl-L- Phenylalanine N-3-Chlorophenyl Amide [9d] | 0.000007 | > 0.01 | 0.19 | < 1e-12 | > 0.01 | 5.1 | 0.0000094 | > 0.01 | 0.11 | 0.00012 | > 0.01 | > 1 | 0.000018 | > 0.01 | 0.16 | 0.00258 | 0.000041 | > 0.01 | > 1 | human tumor inhibiting activity (SK-MEL-5 (Melanoma); Melanoma SK-MEL-5 cell line, statement in words): unprecedented and extraordinary human tumor inhibiting activity
L-Dolavalyl-L-Valyl-N-Methyl-(S,S,R)-Dolaisoleuinyl-(S,R,R)-Dolaproinyl-L- Phenylalanine N-4-Chlorophenyl Amide [9f] | 0.0000029 | > 0.0001 | 0.0084 | 0.0000002 | > 0.0001 | 0.047 | 0.0000018 | > 0.0001 | 0.01 | 0.000007 | > 0.0001 | > 0.1 | 0.0000014 | > 0.0001 | 0.0056 | 0.0000452 | 0.0000025 | > 0.0001 | > 0.1 | –
L-Dolavalyl-L-Valyl-N-Methyl-(S,S,R)-Dolaisoleuinyl-(S,R,R)-Dolaproinyl-L- Proline N-2-Benzothiazole Amide [9n] | 0.000029 | – | > 0.1 | 0.0000098 | – | > 0.1 | 0.000031 | – | > 0.1 | 0.000081 | – | > 0.1 | 0.000027 | – | 0.079 | 0.00083 | 0.000035 | – | > 0.1 | –
L-Dolavalyl-L-Valyl-N-Methyl-(S,S,R)-Dolaisoleuinyl-(S,R,R)-Dolaproinyl-L- Proline N-3-Quinoline Amide [9q] | 0.00033 | > 0.0001 | > 0.1 | 0.00011 | > 0.0001 | > 0.1 | 0.0003 | > 0.0001 | > 0.1 | 0.00041 | > 0.0001 | > 0.1 | 0.000086 | > 0.0001 | > 0.1 | 0.000415 | 0.00036 | > 0.0001 | > 0.1 | –
L-Dolavalyl-L-Valyl-N-Methyl-(S,S,R)-Dolaisoleuinyl-(S,R,R)-Dolaproinyl-L- Valine N-3-Quinoline Amide [9r] | 0.000031 | > 0.0001 | > 0.1 | 0.0000057 | > 0.0001 | > 0.1 | 0.000026 | > 0.0001 | > 0.1 | 0.000051 | > 0.0001 | > 0.1 | 0.000019 | > 0.0001 | 0.069 | 0.0041 | 0.000027 | > 0.0001 | > 0.1 | –
